# PMC8913300, “Two distinct classes of cochaperones compete for the EEVD motif in heat shock protein 70 to tune its chaperone activities” (The Journal of Biological Chemistry, 2022)
# How the values were obtained:
# [1] = system: Hsp90⍺ ubiquitination by CHIP; experiment: In vitro ubiquitination of Hsp90⍺ by CHIP in the presence of DnaJB4; assay type: biochemical; settings: 1 μM CHIP, 1 μM FAM-labeled Hsp90⍺, increasing DnaJB4, 10 min room temperature
# Method: (§1) Four 4 × stock solutions were prepared containing (i) Ube1 (R&D Systems) + UbcH5c/UBE2D3 (R&D Systems) (400 nM Ube1 and 4 μM UbcH5c), (ii) Ubiquitin (R&D Systems) (1 mM Ub), (iii) CHIP + substrate + DnaJB4 (4 μM CHIP, 4 μM substrate, varying concentrations of DnaJB4), and (iv) ATP + MgCl2 (10 mM ATP and 10 mM MgCl2) in ubiquitination assay buffer (50 mM Tris pH 8.0, 15 mM NaCl). CHIP + substrate + DnaJB4 solutions were allowed to equilibrate at room temperature for 30 min prior to initiating the reaction. Ubiquitination reactions were generated by adding 10 μl of each 4 × stock, in order from 1 to 4, for a final volume of 40 μl(100 nM Ube1, 1 μM UbcH5c, 250 μM ubiquitin, 2.5 mM ATP, 2.5 mM MgCl2, 1 μM CHIP and 1 μM substrate). […] Samples were separated by SDS-PAGE on 4% to 20% polyacrylamide gels (Bio-Rad) and analyzed by in-gel fluorescence on a Chemidoc Imager (Bio-Rad) using the SYBR green fluorescence setting or by staining with Coomassie blue reagent. Quantitation of substrate ubiquitination was performed by densitometry analysis in ImageJ (NIH), which was thresholded to a no-CHIP control.
# (§2) Substrates for in vitro ubiquitination assays were labeled with 6-carboxyfluorescein (FAM) to enable in-gel fluorescence measurement of ubiquitination as described ([35]). […]
# Hsp72 I637A = experiment: DnaJB4 stimulation of ATPase activity of Hsp72 I637A (malachite green); assay type: biochemical
# Method: (§3) ATPase assays were carried out using the malachite green assay as described ([14], [83]). In brief, 1 μM Hsp72 and various concentrations of DnaJB4 were added to clear 96-well plates, and the reactions were initiated by addition of 2.5 mM ATP. Reactions were allowed to proceed for 1 h at 37 °C, after which they were developed using malachite green reagent and quenched with sodium citrate. Plate absorbance was measured at 620 nm, and a standard curve of sodium phosphate was used to convert the absorbance values to pmol ATP/μM Hsp72/min. Vmax and Km, app were derived as fit parameters to a modified Michaelis–Menten model (ATPase rate=Vmax∗[DnaJB4]/(Km, app+[DnaJB4])) where Vmax reflects the maximal increased ATP hydrolysis conferred by DnaJB4 binding and Km,app represents the half-maximal concentration of DnaJB4 binding to and stimulating the ATPase activity of Hsp72.
# Hsp70–CHIP complex = experiment: In vitro ubiquitination of Hsc70 by CHIP in the presence of DnaJB4; assay type: biochemical; settings: 1 μM CHIP, 1 μM FAM-labeled Hsc70, increasing DnaJB4, 10 min room temperature
# Method: as §1, §2
# Hsp72 ΔEEVD = experiment: DnaJB4 stimulation of ATPase activity of Hsp72 ΔEEVD (malachite green); assay type: biochemical; settings: Hsp72 ΔEEVD mutant
# Method: as §3
# WT Hsp72 = experiment: DnaJB4 stimulation of ATPase activity of WT Hsp72 (malachite green); assay type: biochemical
# Method: as §3
# [2] = system: MAPT/tau ubiquitination by CHIP; experiment: In vitro ubiquitination of MAPT/tau by CHIP in the presence of DnaJB4; assay type: biochemical; settings: 1 μM CHIP, tau substrate, 30 min room temperature
# Method: Four 4 × stock solutions were prepared containing (i) Ube1 (R&D Systems) + UbcH5c/UBE2D3 (R&D Systems) (400 nM Ube1 and 4 μM UbcH5c), (ii) Ubiquitin (R&D Systems) (1 mM Ub), (iii) CHIP + substrate + DnaJB4 (4 μM CHIP, 4 μM substrate, varying concentrations of DnaJB4), and (iv) ATP + MgCl2 (10 mM ATP and 10 mM MgCl2) in ubiquitination assay buffer (50 mM Tris pH 8.0, 15 mM NaCl). CHIP + substrate + DnaJB4 solutions were allowed to equilibrate at room temperature for 30 min prior to initiating the reaction. Ubiquitination reactions were generated by adding 10 μl of each 4 × stock, in order from 1 to 4, for a final volume of 40 μl(100 nM Ube1, 1 μM UbcH5c, 250 μM ubiquitin, 2.5 mM ATP, 2.5 mM MgCl2, 1 μM CHIP and 1 μM substrate). Reactions were incubated at room temperature (10 min for chaperone ubiquitination, 30 min for tau ubiquitination), quenched in 20 μl 3 × SDS-PAGE loading buffer (188 mM Tris-HCl pH 6.8, 3% SDS, 30% glycerol, 0.01% bromophenol blue, 15% β-mercaptoethanol), and heated to 95 °C for 5 min. Samples were separated by SDS-PAGE on 4% to 20% polyacrylamide gels (Bio-Rad) and analyzed by in-gel fluorescence on a Chemidoc Imager (Bio-Rad) using the SYBR green fluorescence setting or by staining with Coomassie blue reagent. Quantitation of substrate ubiquitination was performed by densitometry analysis in ImageJ (NIH), which was thresholded to a no-CHIP control. […]
# DnaJB4 [3] = target: T1, DnaJB4 (Homo sapiens, UniProt Q9UDY4); experiment: DnaJB4 FP competition (displacement of Hsp72 tracer); assay type: binding; settings: 100 μM peptide, 5 μM DnaJB4, 20 nM Hsp72 tracer, 30 min room temperature; for % tracer displacement: relative to DMSO control, mean ± SD (n = 4)
# T1 construct: 6-His with TEV-cleavable linker (N, cleaved yes); made in house; host or cells: Escherichia coli BL21 (DE3) Rosetta
# T1 sequence (Q9UDY4 whole entry): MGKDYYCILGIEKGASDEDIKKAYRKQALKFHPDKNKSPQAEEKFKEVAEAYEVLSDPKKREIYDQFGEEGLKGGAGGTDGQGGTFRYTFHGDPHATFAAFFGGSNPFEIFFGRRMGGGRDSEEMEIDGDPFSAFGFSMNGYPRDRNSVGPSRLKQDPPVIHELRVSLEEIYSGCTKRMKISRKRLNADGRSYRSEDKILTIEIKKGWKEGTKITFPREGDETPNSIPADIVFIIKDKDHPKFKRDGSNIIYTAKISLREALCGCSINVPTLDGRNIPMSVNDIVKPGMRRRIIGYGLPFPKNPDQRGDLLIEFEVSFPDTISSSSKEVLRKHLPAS
# Method: (§4) All FP experiments were performed in 384-well, black, low-volume, round-bottom plates at a final assay volume of 18 μl (Corning 4511). Polarization values in millipolarization units (mP) were measured at an excitation wavelength of 485 nm and an emission wavelength of 525 nm, with 100 flashes per read using a Spectramax M5 plate reader (Molecular Devices). All experiments were performed 2 times in quadruplicate. Experimental data were analyzed using GraphPad Prism 9. Saturation binding data were background subtracted, and curves were fit using the model [Agonist] versus response (three parameters). For competition experiments, data were background subtracted to tracer alone and normalized to DMSO control to determine relative tracer displacement.
# Unlabeled peptides were assessed for the ability to compete with the Hsp72 tracer. Briefly, 100 μM peptides were incubated with 5 μM DnaJB4 and 20 nM Hsp72 tracer in JDP binding buffer (see above). The plate was covered from light and allowed to incubate at room temperature for 30 min prior to reading.
# DnaJB4 [4] = target: T1, DnaJB4; experiment: Differential scanning fluorimetry of DnaJB4 with chaperone peptides; assay type: binding; settings: 5 μM DnaJB4, 100 μM peptide; for DnaJB4 apparent melting temperature (Tm,app): 5× Sypro Orange, JDP binding buffer, mean ± SD (n = 4), without peptide 57 ± 0.06 °C
# Method: DSF was performed with a 15-μl assay volume in 384-well Axygen quantitative PCR plates (Fisher Scientific) on a qTower ([3]) real-time PCR thermal cycler (Analytik Jena). Fluorescence intensity readings were taken over 70 cycles in “up-down” mode, where reactions were heated to desired temperature and then cooled to 25 °C before reading. The temperature was increased 1 °C per cycle. Each well contained 5 μM DnaJB4, 5 × Sypro Orange dye (Thermo Fisher), and 100 μM of peptide in JDP binding buffer. Fluorescence intensity data were truncated between 45 and 70 °C, plotted relative to temperature, and fit to a Boltzmann Sigmoid in Prism 9.0 (GraphPad). DnaJB4 apparent melting temp (Tm,app) was calculated based on the following equation: Y = Bottom + ((Top-Bottom)/(1 + exp(Tm-T/Slope))).
# CHIP = target: T2, CHIP (Homo sapiens, UniProt Q9UNE7); experiment: CHIP FP competition (displacement of Hsp72 tracer); assay type: binding; settings: 100 μM peptide, 1.58 μM CHIP, 20 nM Hsp72 tracer, 30 min room temperature
# T2 construct: 6-His with TEV-cleavable linker (N, cleaved yes); made in house; host or cells: E. coli BL21(DE3)
# T2 sequence (Q9UNE7 1-303): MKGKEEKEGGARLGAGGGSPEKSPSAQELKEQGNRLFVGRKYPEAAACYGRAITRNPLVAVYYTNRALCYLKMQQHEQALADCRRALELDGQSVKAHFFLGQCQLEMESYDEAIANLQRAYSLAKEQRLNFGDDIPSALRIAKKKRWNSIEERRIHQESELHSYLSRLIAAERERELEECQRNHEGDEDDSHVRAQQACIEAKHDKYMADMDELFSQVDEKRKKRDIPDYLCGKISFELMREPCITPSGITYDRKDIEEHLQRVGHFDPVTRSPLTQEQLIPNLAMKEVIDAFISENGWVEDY
# Method: as §4
# Mixtures of 1.58 μM CHIP and 20 nM Hsp72 tracer were incubated with 100 μM unlabeled competitor peptides in CHIP FP assay buffer (50 mM Hepes pH 7.4, 50 mM KCl, 0.01% Triton X-100). The plate was covered from light and allowed to incubate at room temperature for 30 min prior to reading.
# Hsp72–DnaJB4 complex = experiment: Luciferase refolding by Hsp72/DnaJB4 in the presence of TPR cochaperones; assay type: biochemical; settings: 1 μM Hsp72, 100 nM denatured luciferase, 120 nM DnaJB4; CHIP titration or 10 μM TPR protein; 1 h at 37 °C
# Method: (§5) Experiments were performed as described ([14]). Briefly, Renilla luciferase (Promega) was denatured in 8 M GdnHCl for 2 h at room temperature. Hsp72 (1 μM) and denatured luciferase (100 nM) were diluted into a working concentration in buffer containing an ATP regenerating system (23 mM Hepes, 120 mM KAc, 1.2 mM MgAc, 15 mM DTT, 61 mM creatine phosphate, 35 units/ml creatine kinase, and 5 ng/μl bovine serum albumin, pH 7.4). A titration series of DnaJB4 was added, and the reaction was initiated with the addition of 2.5 mM ATP. For competition assays with DnaJB4, complexes of Hsp72 (1 μM), denatured luciferase (100 nM), and DnaJB4 (120 nM) were incubated with either a titration of CHIP or 10 μM of indicated TPR protein. In all cases, the assay was allowed to incubate for 1 h at 37 °C in white, 96-well flat-bottom plates (Corning 3990). Luminescence was measured using the SteadyGlo luminescence reagent (Promega), and percent refolded luciferase was calculated using a standard curve of 100 to 0 nM native luciferase.
# [5] = system: denatured Renilla luciferase; experiment: Luciferase refolding by Hsp72 variants in the presence of DnaJB4; assay type: biochemical; settings: 1 μM Hsp72, 100 nM denatured luciferase, DnaJB4 titration, 1 h at 37 °C
# Method: as §5
# Hsp72 ATPase activity = experiment: Intrinsic ATPase activity of Hsp72 variants (malachite green); assay type: biochemical; settings: 1 μM Hsp72, 2.5 mM ATP, 1 h at 37 °C, mean ± SD (n = 3)
# Method: as §3
# [6] = system: denatured Renilla luciferase; experiment: Luciferase refolding by Hsp72 variants in the presence of DnaJA2; assay type: biochemical; settings: 1 μM Hsp72, 100 nM denatured luciferase, 1 h at 37 °C
substance,measurement,setting,value
"DnaJB4: representative class B J-domain protein, recombinant, full length",effect on Hsp90 ubiquitination by CHIP,[1],no effect
same,"Vmax,app above baseline",Hsp72 I637A; Hsp72 I637A,~2 fold
same,"Vmax,app","Hsp72 I637A; Hsp72 I637A 1 μM, DnaJB4 titration, 2.5 mM ATP, 1 h at 37 °C, Michaelis–Menten fit",23.9 ± 3.6 pmol ATP/min
same,Km,"Hsp72 I637A; Hsp72 I637A 1 μM, DnaJB4 titration, Michaelis–Menten fit, read-out: Km,app",~0.01 µM
same,effect on Hsp70 ubiquitination by CHIP,Hsp70–CHIP complex,dose-dependent inhibition
same,stimulation of ATPase activity,Hsp72 ΔEEVD,unable to stimulate
same,"stimulation of Vmax,app over baseline",WT Hsp72; WT Hsp72,~4 fold
same,"maximum ATPase activity (Vmax,app)","WT Hsp72; WT Hsp72 1 μM, DnaJB4 titration, 2.5 mM ATP, 1 h at 37 °C, Michaelis–Menten fit",37.8 ± 3.5 pmol ATP/min
same,Km,"WT Hsp72; WT Hsp72 1 μM, DnaJB4 titration, Michaelis–Menten fit, read-out: half-maximal concentration (Km,app)",~0.06 µM
same,effect on ubiquitination of Hsc70 and tau by CHIP,[2],suppressed
"GSGPTIEEVD [Hsp72, unlabeled, N-acetylated 10-mer peptide corresponding to the C terminus of Hsp72/HSPA1A]",% tracer displacement,DnaJB4 [3],40.2 ± 4.6%
same,"DnaJB4 apparent melting temperature (Tm,app)",DnaJB4 [4],58 ± 0.21 °C
same,positive shift in the melt curves,DnaJB4 [4]; versus no peptide,1 to 2 °C
GSGPTIEEVD-CONH2 [peptide with an amidated Hsp72 C terminus],binding to DnaJB4 in FP competition relative to WT Hsp72 peptide,DnaJB4 [3],drastically reduced binding
same,binding to CHIP in FP competition relative to WT Hsp72 peptide,CHIP,carboxylate was important for binding to CHIP
"HOP: Hsc70 organizing protein, TPR cochaperone",effect on client (luciferase) refolding by Hsp72–DnaJB4,Hsp72–DnaJB4 complex,suppressed luciferase refolding
Hsp72 I637A: full-length Hsp72 with point mutation of the critical P5 isoleucine residue,ability to coordinate with DnaJB4 in luciferase refolding,[5],nearly completely impaired
same,intrinsic ATPase activity,Hsp72 ATPase activity,15.8 ± 3.9 pmol ATP/min
same,luciferase refolding in the presence of DnaJA2,[6],comparably with WT
Hsp72 ΔEEVD: mutant of full-length Hsp72 in which the EEVD motif was deleted,ability to coordinate with DnaJB4 in luciferase refolding,[5],nearly completely impaired
same,intrinsic ATPase activity,Hsp72 ATPase activity,4.6 ± 1.9 pmol ATP/min
"Hsp90β: unlabeled, N-acetylated 10-mer peptide corresponding to the C terminus of Hsp90β",% tracer displacement,DnaJB4 [3],−1.3 ± 2.2%
same,"DnaJB4 apparent melting temperature (Tm,app)",DnaJB4 [4],57 ± 0.20 °C
"Hsp90⍺: unlabeled, N-acetylated 10-mer peptide corresponding to the C terminus of Hsp90⍺",% tracer displacement,DnaJB4 [3],−7.7 ± 1.5%
same,"DnaJB4 apparent melting temperature (Tm,app)",DnaJB4 [4],57 ± 0.15 °C
IEEVD,binding to DnaJB4 in FP competition relative to WT Hsp72 peptide,DnaJB4 [3],further worsened it
TIEEVD,binding to DnaJB4 in FP competition relative to WT Hsp72 peptide,DnaJB4 [3],significantly weakened affinity
WT Hsp72: full-length recombinant Hsp72/HSPA1A,intrinsic ATPase activity,Hsp72 ATPase activity,10.9 ± 2.8 pmol ATP/min
